According to patent US8637679B2, “Process for the isolation of organic compounds useful for the treatment of cancer” (Council of Scientific and Industrial Research, priority 2011, dated 2014):
Where “and” joins values, the source holds several entries; their conditions need not be identical. Equal values may be shown once. Entries after “also recorded” stand apart in the source; their conditions may differ. Read-outs that look alike come from different tables or passages of the source. Blank lines part the entries; values can stand above or below the compound they belong to.

Legend:
CEM C7 = assay: MTT cell viability assay, CEM C7; format: cell-based, human; details: CEM C7, 48 hrs
Protocol: (§1) Human cervical cancer cell lines (HeLa, ME-180 and SiHa), brain tumor cell lines (U87MG, U373MG, U87MG EGFRvIII, T98G, A172 and LN229), lymphoid leukemia (MOLT-3, MOLT-4, REH and CEMC-7), myloid leukemia (K562), pancreatic cancer (MIAPaCa-2, AsPC-1, Panc-1 and Panc 10.05), lung cancer (A549) and colon cancer (HCT116 and SW480) cell lines from American Type Culture Collection, Manassas, Va., USA were grown in IMDM or RPMI (cell specific) Medium supplemented with 10% fetal bovine serum and 1% antibiotic-antimycotic. Cells were cultured in 37° C. in an atmosphere of 5% CO2.
(§2) Viability of cancer cell lines after treatment as at the indicated times was determined by MTT assay. Briefly, 10,000 cells were plated in triplicate in 96 well plates and incubated for 24 and 48 hours in complete media in presence of varying dose of mahanine (0-50 μM). 100 ug MTT was added in each well. Incubate the plate for 1-4 hours at 37° C. and humidified 5% CO2 atmosphere. Absorbance was recorded at 550 nm with 96 well plate readers.

SW480 = assay: MTT cell viability assay, SW480; format: cell-based, human; details: SW480, 48 hrs
Protocol: as §1, §2

T98G = assay: MTT cell viability assay, T98G; format: cell-based, human; details: 48 hrs
Protocol: as §1, §2

MIAPaCa-2 = assay: MTT cell viability assay, MIAPaCa-2; format: cell-based, human; details: MIAPaCa-2, 48 hrs
Protocol: as §1, §2

A549 = assay: MTT cell viability assay, A549; format: cell-based, human; details: A549, 48 hrs
Protocol: as §1, §2

K562 = assay: MTT cell viability assay, K562; format: cell-based, human; details: K562, 48 hrs
Protocol: as §1, §2

HCT116 = assay: MTT cell viability assay, HCT116; format: cell-based, human; details: HCT116, 48 hrs
Protocol: as §1, §2

[1] = In vivo bioavailability after oral feeding; design: species or system Balb/c mice; details: mouse, in vivo, po
Protocol: EtOAc extract of Murraya koenigii was orally feeded to normal healthy Balb/c (100 mg/kg body weight) and blood was collected from retro orbital plexus after 30 min interval by glass capillary. Control blood was collected from the mice before the […] of extract. The Institutional Animal Ethical Committee had approved the study. Blood serum was isolated and the serum protein was separated by centrifugation in ice-cold acetone. Supernatant was evaporated to dryness and residual part was dissolved in minimum volume of MeOH and injected into the HPLC column.

Molt-4 = assay: MTT cell viability assay, Molt-4; format: cell-based, human; details: Molt-4, 48 hrs
Protocol: as §1, §2

cancer cell lines = assay: MTT assay, pooled cancer cell lines of several cancer types; format: cell-based, human; details: 48 hr
Protocol: as §1, §2

AsPC1 = assay: MTT cell viability assay, AsPC1; format: cell-based, human; details: AsPC1, 48 hrs
Protocol: as §1, §2

Molt-3 = assay: MTT cell viability assay, Molt-3; format: cell-based, human; details: Molt-3, 48 hrs
Protocol: as §1, §2

HeLa [2] = assay: MTT cell viability assay, HeLa; format: cell-based, human; details: 48 hrs
Protocol: as §1, §2

[3] = tested on: glioma cells (U87MG, U373MG, LN229, A172 and T98G); assay: MTT assay, panel of glioma cell lines; format: cell-based, human; details: range over U87MG, 48 hr, read-out: IC50 values against different glioma cell lines
Protocol: as §1, §2

REH = assay: MTT cell viability assay, REH; format: cell-based, human; details: 48 hrs
Protocol: as §1, §2

U87MG = assay: MTT cell viability assay, U87MG; format: cell-based, human; details: 48 hrs
Protocol: as §1, §2

A172 = assay: MTT cell viability assay, A172; format: cell-based, human; details: A172, 48 hrs
Protocol: as §1, §2

Panc10.05 = assay: MTT cell viability assay, Panc10.05; format: cell-based, human; details: Panc10.05, 48 hrs
Protocol: as §1, §2

U373MG = assay: MTT cell viability assay, U373MG; format: cell-based, human; details: 48 hrs
Protocol: as §1, §2

Vero = assay: MTT cell viability assay, Vero normal cells; format: cell-based, African monkey; details: Vero normal cell line, 48 hrs
NCIH23 = assay: MTT cell viability assay, NCIH23; format: cell-based, human; details: NCIH23, 48 hrs
Protocol: as §2

Panc1 = assay: MTT cell viability assay, Panc1; format: cell-based, human; details: Panc1, 48 hrs
Protocol: as §1, §2

LN229 = assay: MTT cell viability assay, LN229; format: cell-based, human; details: LN229, 48 hrs
Protocol: as §1, §2

[4] = tested on: glioma (T98G) and cervical (HeLa) cancer cells; assay: Comparative cytotoxicity of mahanine and analogs by MTT; format: cell-based, human; details: MTT
Protocol: as §1, §2

Hsp90β = Hsp90β (Homo sapiens, UniProt P08238); assay: γ-ATP sepharose binding assay, Hsp90β; details: mahanine at 50 and 100 μM
Protocol: (§3) 5 μg of purified Hsp90α and Hsp90β were pre-incubated separately on ice with 200 μL incubation buffer (10 mM Tris-Hcl, 50 mM KCl, 5 mM MgCl2, 2 mM DTT, 20 mM Na2MoO4, 0.01% NP40, pH 7.5) containing mahanine or 17-AAG and incubated for 30 mins on ice. After the incubation, 25 μL pre-equilibrated γ-phosphate ATP sepharose added and again incubated at 37° C. with frequent agitation.
(§4) Sepharose subsequently washed and analyzed by SDS-PAGE. Then the blot was probed with anti Hsp90 antibody and developed by ECL.

Hsp90α = Hsp90α (Homo sapiens, UniProt P07900); assay: γ-ATP sepharose binding assay, Hsp90α; details: mahanine at 50 and 100 μM
Protocol: as §3, §4

HeLa [5] = assay: 7-AAD flow cytometric apoptosis, HeLa; format: cell-based, human
Protocol: (§5) U87MG, LN229, HeLa, SiHa and ME180 (1×10^6 cells) cells were cultured in 6-well plates in presence or absence of Mahanine (25 μM) for 24 hrs. Cells were washed in PBS, incubated with 7-Aminoactinomycin D (7-AAD) at 4° C. for 20 min and processed. Data acquisition was done on a FACSCalibur flow cytometer (BD) at excitation wavelength at 488 nm and emission wavelength at 647 nm and analyzed with CellQuestPro software.

ME180 = assay: 7-AAD flow cytometric apoptosis, ME180; format: cell-based, human; details: ME180, paclitaxel 10 μM alone
Protocol: as §5

Hsp90β, sequence (P08238 whole entry): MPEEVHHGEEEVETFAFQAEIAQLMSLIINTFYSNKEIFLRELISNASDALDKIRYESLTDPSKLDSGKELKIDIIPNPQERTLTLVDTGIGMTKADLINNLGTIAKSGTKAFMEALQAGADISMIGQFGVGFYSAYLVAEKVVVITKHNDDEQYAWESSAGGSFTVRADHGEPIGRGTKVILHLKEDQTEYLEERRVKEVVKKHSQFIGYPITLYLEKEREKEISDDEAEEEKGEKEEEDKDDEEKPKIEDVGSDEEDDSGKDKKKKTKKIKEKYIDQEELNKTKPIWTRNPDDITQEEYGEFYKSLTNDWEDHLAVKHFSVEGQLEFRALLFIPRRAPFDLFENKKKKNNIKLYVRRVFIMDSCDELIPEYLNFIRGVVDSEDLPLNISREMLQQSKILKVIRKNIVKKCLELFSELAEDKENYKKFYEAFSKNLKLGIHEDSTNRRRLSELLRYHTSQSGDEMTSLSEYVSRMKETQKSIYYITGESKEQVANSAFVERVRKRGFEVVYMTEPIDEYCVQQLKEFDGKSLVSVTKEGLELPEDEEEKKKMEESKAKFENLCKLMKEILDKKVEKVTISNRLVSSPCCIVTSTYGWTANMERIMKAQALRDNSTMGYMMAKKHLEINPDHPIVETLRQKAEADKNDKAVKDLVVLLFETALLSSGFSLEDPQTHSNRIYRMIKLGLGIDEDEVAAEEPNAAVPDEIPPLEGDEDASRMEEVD

IC50 (SW480): 36.4 ± 0.5 µM
IC50 (MIAPaCa-2): 35.2 ± 0.1 µM
IC50 (A549): 37 ± 0.1 µM
IC50 (K562): 25.1 ± 0.1 µM
IC50 (HCT116): 33.5 ± 0.3 µM
secondary metabolites in blood (mass spectroscopy) [1]: no production of secondary metabolites
time to appearance in blood circulation after oral administration [1]: ≤ 30 min
IC50 (Molt-4): 28 ± 0.2 µM
IC50 (cancer cell lines; range over glioma and cervical cancer cell lines, read-out: IC50, glioma and cervical cancer cells): 10 to 20 µM
IC50 (cancer cell lines; range over leukemia, glioma, cervical, pancreatic, colon and lung cancer lines, MTT, read-out: IC50, cell lines of different cancer types): 20 to 45 µM and 30 to 50 µM
IC50 (AsPC1): 31.75 ± 0.2 µM
IC50 (Molt-3): 22.6 ± 0.6 µM
IC50 (HeLa [2]): 34.8 ± 0.1 µM
IC50 (HeLa [2]; listed as Mahanimbin): 36 µM
IC50 [3]: 38 to 47 µM
IC50 (U87MG): 42.6 ± 0.4 µM
IC50 (Panc10.05): 38.2 ± 0.1 µM
IC50 (Panc1): 32.8 ± 0.1 µM
Compound: CC(C)=CCCC1(C)C=Cc2c(c(C)cc3c2[nH]c2ccccc23)O1 (stereo not shown) [Mahanimbine, mahanimbine]
IC50 (CEM C7): 27.4 ± 0.3 µM
IC50 (T98G): 43.6 ± 0.2 µM
IC50 (REH): 24.3 ± 0.7 µM
IC50 (A172): 38.4 ± 0.8 µM
IC50 (U373MG): 41.2 ± 0.25 µM
IC50 (Vero): > 100 µM
IC50 (NCIH23): 31.8 ± 0.2 µM
IC50 (LN229): 46.3 ± 0.1 µM

Compound: COc1ccc2c(c1)[nH]c1c3c(c(C)cc12)OC(C)(CCC=C(C)C)C=C3 (stereo not shown) [O-methylated mahanine]
cytotoxicity (activity in words) [4]: inactive; also recorded: more or less inactive

Compound: C20-C21 epoxy mahanine
IC50 (REH): 18.4 ± 1.1 µM

Compound: CC(C)=CCCC1(C)C=Cc2c(c(C)cc3c4ccccc4n(C)c23)O1 (stereo not shown) [N-methylated mahanimbine]
cytotoxicity (activity in words) [4]: inactive; also recorded: more or less inactive

effect on ATP binding to purified Hsp90 (Hsp90β): easily hindered the ATP binding
effect on ATP binding to purified Hsp90 (Hsp90α): easily hindered the ATP binding
Compound: 17-allylamino, 17-demethoxygeldanamycin [17AAG, reference compound]

Compound: N.N.[Cl][Pt][Cl] [Cisplatin, cisplatin]
apoptosis (7-AAD) (HeLa [5]; cisplatin 40 μM alone): ~7%

Compound: CC(=O)O[C@H]1C(=O)[C@@]2(C)[C@H]([C@H](OC(=O)c3ccccc3)[C@]3(O)C[C@H](OC(=O)[C@H](O)[C@@H](NC(=O)c4ccccc4)c4ccccc4)C(C)=C1C3(C)C)[C@]1(OC(C)=O)CO[C@@H]1C[C@@H]2O [Paclitaxel, paclitaxel, reference compound]
apoptosis (7-AAD) (ME180): 18.21%
apoptosis (7-AAD) (HeLa [5]; paclitaxel 10 μM alone): 16.19%
